Source: ChEMBL document CHEMBL3244327, “Benzomorphans. Structure of a position isomer” (J Med Chem, 1978)
Activity calls are given as the source filed them. The rule behind the calls is not given here.

Columns and labels:
Mus musculus = assay: Analgesic activity in sc dosed mouse assessed as inhibition of acetylcholine bromide-induced writhing after 2 mins; type: functional
Rattus norvegicus [1] = assay: Narcotic antagonist activity in sc dosed rat assessed as dose required for 50% antagonist activity co-treated with meperidine; type: functional
Rattus norvegicus [2] = assay: Toxicity in rat at 80 mg/kg, sc; type: organism-based; parameters: dose 80 mg/kg, route subcutaneous; details: in vivo
Rattus norvegicus [3] = assay: Narcotic antagonist activity in rat assessed as dose required for 50% antagonist activity at 10 mg/kg, sc co-treated with meperidine; type: functional, organism-based; parameters: dose 10 mg/kg
Rattus norvegicus [4] = assay: Narcotic antagonist activity in rat assessed as dose required for 50% antagonist activity at 80 mg/kg, sc co-treated with meperidine; type: functional, organism-based; parameters: dose 80 mg/kg

Compound	ED50 (Mus musculus) [mg/kg]	AD50 (Rattus norvegicus [1]) [mg/kg]	other results
C=CCN1CC[C@]2(CC)c3cc(O)ccc3CC1[C@@H]2C	0.23	0.064	–
CC1CN(C)C2Cc3ccc(O)cc3[C@@]1(C)C2 (some centres undefined)	2.9	–	–
CC1CN(Cc2ccccc2)C2Cc3ccc(O)cc3[C@@]1(C)C2 (some centres undefined)	8.5	–	Activity (Rattus norvegicus [2]): Toxic; Activity (Rattus norvegicus [3]): inactive
CC[C@H]1C2Cc3ccc(O)cc3[C@@]1(C)CCN2C	1.1	–	Activity (Rattus norvegicus [4]): inactive
CC(C)=CCN1C[C@@H](C)[C@]2(C)C[C@@H]1Cc1ccc(O)cc12	29	2.8	–
CCC1CN(C)C2Cc3ccc(O)cc3[C@@]1(C)C2 (some centres undefined)	20	9	–
C=CCN1CC(C)[C@]2(CC)CC1Cc1ccc(O)cc12 (some centres undefined)	10	0.037	–
C[C@H]1C2Cc3ccc(O)cc3[C@@]1(C)CCN2C	0.54	–	–
CC[C@@]12CCN(CC=C(C)C)C(Cc3ccc(O)cc31)[C@@H]2C	2.1	10.9	–
CC(C)=CCN1CC[C@@]2(C)c3cc(O)ccc3C[C@@H]1[C@@H]2C (relative stereo)	2.2	3.9	–
C[C@H]1C2Cc3ccc(O)cc3[C@@]1(C)CCN2Cc1ccccc1	23	1.3	–
CN1CC[C@]23c4c5ccc(O)c4O[C@H]2[C@@H](O)C=C[C@H]3[C@H]1C5 [MORPHINE]	0.47	–	Activity (Rattus norvegicus [1]): inactive
CC[C@@]12CC(Cc3ccc(O)cc31)N(CC=C(C)C)CC2C (some centres undefined)	–	>40	–
